Results reported in patent publication US6113907A, “Pharmaceutical grade St. John's Wort” (priority 1997, dated 2000).

Key:
opiate receptor = opiate receptor non-selective, [3H] naloxone, rat forebrain; assay type: binding
Protocol: To determine the inhibitory activity of the substances for the dopamine receptor (dp) the following assay was preformed. A partial receptor preparation was prepared from bovine striatal membranes using [^3 H] spiperone as the ligand at a final concentration of 0.3 nM. To determine non-specific binding cold spiperone was tested at 1 μM. The reactions were carried out in 50 mM Tris-HCl (pH 7.7) containing 120 mM NaCl, 5 mM KCl, 2 mM CaCl2 and 1 mM MgCl2 at 37° C. for 60 minutes. […] The inhibitory properties of the substances for binding of ligand to the adenosine receptor (ADNS) was measured using a partially purified receptor preparation made from bovine striatal membranes. The radioligand used was [^3 H] 5'-N-ethylcarboxyamidoadenosine (NECA) at a final ligand concentration of 4 nM. Non-specific binding was determined in the presence of 10 μM NECA. The reactions were carried out in 50 mM Tris-HCL (pH 7.7) for 60 minutes at 25° C. […] To measure the inhibitory activity of the substances for the opiate receptor (Opiate) receptor was partially purified from rat forebrains. [^3 H] naloxone at 1 nM as the ligand used. Non-specific binding was determined in the presence of 1 μM of naloxone. […] Non-specific binding was determined in the presence of 1 μM nicotine sulfate. […] Non-specific binding was determined in the presence of 1 μM Tyr-° CRF. […]

[1] = tested on: benzodiazepine receptor (BDZ); assay: benzodiazepine receptor (BDZ), [3H] PK11195, rat kidney membranes; assay type: binding; details: 10^-4; 60 min, 100 µM
Protocol: Fourteen additional bioassays were preformed on either extracts, fractions or reference compounds for this botanical. To measure inhibition of [^3 H] PK11195 to the benzodiazepine receptor (BDZ) a partially purified receptor preparation was made from rat kidney membranes. The final radioactive ligand concentration was 1 nM and non-specific binding was measured using 200 nM cold PK11195. The substances, receptor and ligand were reacted in 50 mM Tris-HCL (pH 7.7) at 0-4° C. for 60 minutes. The reaction was terminated by rapid filtration of the samples through glass fiber filters. […] The inhibition of [^3 H] pinrenzepine to the muscarinic M1 receptor (M1) by the substances was measured using a partially purified receptor from bovine striatal membranes. The final hot ligand concentration was 1 nM and non-specific binding was determined in the presence of 100 nM atropine. […] The reactions were terminated by rapid vacuum filtration of the reaction mixture through glass fiber filters. […] To assay for biological activity for the muscarinic receptor for the central nervous system, receptor was partially purified from rat cortical membranes. […] Non-specific binding was determined in the presence of 100 nM atropine. […] Non-specific binding was determined using 1 mM NMDA. […] Non-specific binding was determined using 100 μM AMPA.

herpes simplex = details: cited from earlier work
adenosine receptor = adenosine receptor non-selective (ADNS), [3H] NECA, bovine striatal membranes; assay type: binding
Protocol: To determine the inhibitory activity of the substances for the dopamine receptor (dp) the following assay was preformed. A partial receptor preparation was prepared from bovine striatal membranes using [^3 H] spiperone as the ligand at a final concentration of 0.3 nM. To determine non-specific binding cold spiperone was tested at 1 μM. The reactions were carried out in 50 mM Tris-HCl (pH 7.7) containing 120 mM NaCl, 5 mM KCl, 2 mM CaCl2 and 1 mM MgCl2 at 37° C. for 60 minutes. […] The inhibitory properties of the substances for binding of ligand to the adenosine receptor (ADNS) was measured using a partially purified receptor preparation made from bovine striatal membranes. The radioligand used was [^3 H] 5'-N-ethylcarboxyamidoadenosine (NECA) at a final ligand concentration of 4 nM. Non-specific binding was determined in the presence of 10 μM NECA. The reactions were carried out in 50 mM Tris-HCL (pH 7.7) for 60 minutes at 25° C. […] To measure the inhibitory activity of the substances for the opiate receptor (Opiate) receptor was partially purified from rat forebrains. [^3 H] naloxone at 1 nM as the ligand used. Non-specific binding was determined in the presence of 1 μM of naloxone. The assays were carried out in 50 mM Tris-HCl (pH 7.4) at 25° C. for 90 minutes. […] The neuronal nicotinic receptor (Nicotinic Neuronal) was assayed using receptors partially purified from rat cortical membranes. The radioligand used was [^3 H] N-methylcarbamylcholine iodide at a final ligand concentration of 5 nM. Non-specific binding was determined in the presence of 1 μM nicotine sulfate. The assay reactions were carried out in 50 mM Tris-HCl (pH 7.4) containing 120 mM NaCl, 5 mM KCl, 2 mM CaCl2, 1 mM MgCl2, and 3 μM atropine sulfate at 4° C. for 60 minutes. […] To determine how the substances inhibit the corticotropin releasing factor (CRF) partially purified receptor from rat cortical membranes was used as the receptor preparation. […] Tyr-° CRF at a final ligand concentration of 0.1 nM. Non-specific binding was determined in the presence of 1 μM Tyr-° CRF. The reactions were carried out in 50 mM HEPES containing 10 mM MgCl2, 2 mM EGTA, 0.12 TIU/ml aprotinin and 0.3% BSA at 25° C. for 120 minutes. The reaction is terminated by centrifugation in a Sorvall centrifuge for 15 minutes at 4° C.

glioma cells = details: tissue culture; cited from earlier work
murine cytomegalovirus = details: cited from earlier work
[2] = tested on: Receptor tyrosine kinase of epidermal growth factor; details: cited from earlier work
GABAA receptor = assay: GABAA agonist site binding assay, [3H]-GABA, bovine cerebellar membranes; details: 10^-4 M
Protocol: The reference literature compounds for this assay include diazepam and muscimol (Sigma Chemical Company).
The reaction is terminated by rapid vacuum filtration onto glass fiber filters. Radioactivity trapped onto the filters is determined and compared to control values in order to ascertain any interactions of test compound with the GABAA receptor.

Cc1cc(O)c2c(=O)c3c(O)cc(O)c4c5c(O)cc(O)c6c(=O)c7c(O)cc(C)c8c1c2c(c34)c(c78)c65 [Hypericin, hypericin]
OPNS (opiate receptor; 10^-4, Table 9I, 100 µM): 44% | Opiate NS % inhibition (PharmaPrint range) (opiate receptor; 10^-4 M): 70 ± 35% | BDZ [1]: 33% | inhibition of herpes simplex (herpes simplex): inhibit | ADNS (adenosine receptor; 10^-4, 60 min, 100 µM): 70% | AD,NS % inhibition (PharmaPrint range) (adenosine receptor; 10^-4 M): 70 ± 20% | growth of glioma cells (glioma cells): inhibit the growth of glioma cells | activity against murine cytomegalovirus (murine cytomegalovirus): Activity has also been reported | receptor tyrosine kinase activity of epidermal growth factor [2]: inhibited | GABAA % inhibition (PharmaPrint range) (GABAA receptor): 30 ± 15%
